Key:
[1] = system: bEnd.3
Experimental: The integrity of the bEnd.3 was measured by determining the translocation of the FD40 fluorescent probe while LN229 viability was determined using WST-1 reagent and OD450 nm measurement following 24 h incubation, and
The in vitro BEB models were optimized based on previous studies [45]. Briefly, bEnd.3 cells were cultured in DMEM, supplemented with 10% FBS and 1% penicillin/streptomycin (Lonza, Basel, Switzerland) antibiotic solution. Cells were cultured in a humidified atmosphere of 5% CO2 at 37° C. and the medium changed every other day. […] Samples were recovered from the apex and base and fluorescence intensity was measured in a microtiter plate reader (BMG Labtech, Fluostar OPTIMA, Ortenberg, Germany) with an excitation of 485 nm and a maximum emission at 520 nm.
To study the BEB translocation efficiency of the Lip-PAN-RG3 and Lip-PAN-FC5 liposomes and subsequent drug delivery and cytotoxic activity of PAN in a glioblastoma cell line, a dual in vitro non-contact co-culture model was established with bEnd.3 and LN229 cells. […] Following the 24 h treatment, WST-1 was added to the plate, and O.D.450 nm was measured following 24 h incubation. Each data point was determined using three replicate wells and two independent experiments were carried out in different days. […] In parallel, the integrity of the BEB model was measured as described previously.

[2] = system: LN229 cell line; assay: BEB-glioblastoma (BEB-GBM) in vitro model: LN229 viability; type: cell-based; parameters: dose or concentration left out as unconfirmed; conditions: PAN free added to apex, 24 h
Experimental: FIG. 18. Activity of liposomal drug delivery in the BEB-Glioblastoma model, wherein an in vitro BEB-GBM model was developed to mimic the complexity of drug delivery to a brain tumour. This model combined a monolayer of bEnd.3, as the BBB barrier, and the LN229 cell line at the base as the glioblastoma tumour.
FIG. 18B. PAN encapsulated RG3 and FC5 functionalized liposomes were analysed in terms of BEB translocation and delivery of PAN to a glioblastoma cell line and compared with non-functionalized unloaded liposomes (Control). […] The cytotoxic effect of PAN in LN229 was determined by adding WST-1 reagent. The values were obtained from duplicates of two independent experiments ([…]).

In the case of `Cc1[nH]c2ccccc2c1CCNCc1ccc(/C=C/C(=O)NO)cc1` [PAN, panobinostat], the “effect on BEB integrity in BEB-GBM model” value [1] is reported as “no significant effect” and the “effect on LN229 viability in BEB-GBM model” value [2] is reported as “no significant effect”.
